pIC50: −log10 of the molar value. Like-named read-outs stand apart in the source and are kept apart here.
What was measured:
P. falciparum NF54 = experiment: In vitro microplate assay against P. falciparum NF54 (3H-hypoxanthine incorporation, erythrocytic stages); format: cell-based, Plasmodium falciparum; conditions: average of four determinations, read-out: P.f. NF54 IC50
Method: (§1) All newly synthesized compounds were tested for their antiplasmodial activity against the chloroquine-sensitive strain Plasmodium falciparum NF54. Cytotoxicity was determined using rat skeletal myofibroblasts (L-6 cells). As standards chloroquine and podophyllotoxin were used.
In vitro activity against erythrocytic stages of P. falciparum was determined with a ^3H-hypoxanthine incorporation assay, using the chloroquine sensitive NF54 strain [44]. Chloroquine (Sigma C6628) was used as standard. Test compounds were dissolved in DMSO at 10 mg/mL and added to parasite cultures incubated in RPMI 1640 medium without hypoxanthine, supplemented with HEPES (5.94 g/L, NaHCO3 (2.1 g/L), neomycin (100 U/mL), Albumax (5 g/L) and washed human red blood cells A^+ at 2.5% hematocrit (0.3% parasitemia). Serial drug dilutions of 11 3-fold dilution steps (covering a range from 100–0.002 µg/mL) were prepared. The 96-well plates were incubated at a humidified atmosphere at 37 °C; 4% CO2, 3% O2, 93% N2. After 48 h, 0.05 mL of ^3H-hypoxanthine (=0.5 µCi) was added to each well. The plates were incubated for another 24 h under the same conditions. Then, the plates were harvested with a Betaplate cell harvester (Wallac, Zurich, Switzerland). The red blood cells were transferred onto glass fiber filter and washed with distilled water. The dried filters were inserted into a plastic foil with 10 mL of scintillation fluid and counted in a Betaplate liquid scintillation counter. IC50 values were determined from sigmoidal inhibition curves by linear regression using Microsoft Excel. Chloroquine was used as control.

[1] = In vitro cytotoxicity with L-6 cells (Alamar Blue); format: cell-based, rat; conditions: rat, Cytotoxicity L-6 Cells IC50
Method: as §1
(§2) In vitro cytotoxicity was determined using a primary cell line of rat skeletal myofibroblasts. The assay was performed in 96-well microtiter plates, each well containing 0.1 mL of RPMI 1640 medium, supplemented with 0.1% L-glutamine (200 mM) and 10% fetal bovine serum, as well as 4000 L-6 cells. Serial drug dilutions of 11 3-fold dilution steps (covering a range from 100–0.002 µg/mL) were prepared. After 70 h of incubation time, the plates were inspected under an inverted microscope to ensure sterile conditions and growth of the controls. […] Podophyllotoxin (Sigma P4405) was used as control.

[2] = Parallel artificial membrane permeability assay (PAMPA); conditions: pH 7.4
Method: The PAMPA was performed using a Corning Gentest Pre-coated PAMPA Plate System at a pH of 7.4. It consists of 96-well polystyrene plates, whereas the donor-plate (bottom plate) is a conventional 96-well microtiter plate. The base of the acceptor-plate (top plate) consists of a porous membrane. The pores are lined with a lipid-oil-lipid trilayer. Stock solutions (10 mM) of each test compound were prepared in DMSO or MeOH and then further diluted to a final concentration of 200 µM with phosphate-buffered saline (PBS) at a pH of 7.4. Compound solutions were then added to the wells of the donor plate and pure PBS was added to each well of the acceptor plate. Compounds and negative control (pure PBS) were tested in quadruplicates. Donor and acceptor plate were coupled and incubated at ambient temperature for 5 h. After that, the plates were separated and solutions from each well of both plates were transferred onto 96-well UV-Star Microplates (Greiner Bio-One). The UV-absorption was measured at different wavelengths (between 200 and 300 nm) by a SpectraMax M3 UV plate reader (Molecular Devices). The concentrations were received from a calibration curve for each substance. The plates were analyzed at a wavelength were the R^2 value of the calibration curve was higher than 0.99 [48]. […] (2) cequ=cDt* VD+cAt* VA/VD+VA where: • cD(t)—compound concentration in donor well at time t.
Recovery of compounds from donor and acceptor wells (mass retention) was calculated as shown in the equation below. Data were only accepted when recovery exceeded 70%. (3) R=1−cDt∗ VD+cAt∗ VA/c0∗ VD where: • R—mass retention (%); • cA(t)—compound concentration in acceptor well at time t; • cD(t)—compound concentration in donor well at time t; • c0—initial compound concentration in donor well; • VD—donor well volume; • VA—acceptor well volume.

CYP3A4 = target: T1, CYP3A4 (Homo sapiens, UniProt P08684); experiment: Cytochrom P450 3A4 inhibition assay (P450-Glo, luciferin-IPA); format: in vitro ADME; conditions: recombinant human CYP3A4 Supersomes (+ oxidoreductase + b5), probe luciferin-IPA, stock solutions diluted to 20 µM, pH 7.4, triplicate
T1 construct: purchased Corning, Glendale, AZ, USA
T1 sequence (P08684 2-503 limits assumed): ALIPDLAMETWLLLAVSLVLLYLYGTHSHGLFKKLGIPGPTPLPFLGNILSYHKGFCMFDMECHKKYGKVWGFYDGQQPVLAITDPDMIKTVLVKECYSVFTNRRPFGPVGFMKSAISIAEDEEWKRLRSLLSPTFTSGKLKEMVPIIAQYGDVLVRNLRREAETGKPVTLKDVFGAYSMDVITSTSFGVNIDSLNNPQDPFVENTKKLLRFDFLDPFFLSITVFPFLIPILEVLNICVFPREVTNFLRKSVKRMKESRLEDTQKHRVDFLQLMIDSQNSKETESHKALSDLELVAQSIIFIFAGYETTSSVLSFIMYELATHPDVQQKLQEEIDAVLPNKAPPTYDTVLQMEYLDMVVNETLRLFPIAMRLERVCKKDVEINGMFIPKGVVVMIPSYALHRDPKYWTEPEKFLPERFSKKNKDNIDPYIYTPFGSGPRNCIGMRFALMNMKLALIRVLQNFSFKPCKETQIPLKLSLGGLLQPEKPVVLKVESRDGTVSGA
Method: The CYP3A4 inhibition assay was performed using 96-well White Plates (Greiner Bio-One) at a pH of 7.4. […] Stock solutions were further diluted to a final concentration of 20 µM using water (HPLC grade). The luciferin IPA stock solution (3 mM) was diluted to a final concentration of 0.3 mM using water (HPLC grade). The CYP3A4 reaction mixture was prepared by mixing water (HPLC grade) with potassium phosphate buffer (1 M), luciferin IPA (0.3 mM) and CYP3A4 membrane (1 pmol/µL). The control reaction mixture was prepared using water (HPLC grade), potassium phosphate buffer (1 M), luciferin IPA (0.3 mM) and membrane without CYP activity (1 pmol/µL). Solutions A and B of the NADPH regeneration system were mixed and HPLC grade water was added. The reconstituted luciferin detection reagent was prepared by mixing the reconstituted buffer with esterase with the luciferin detection reagent. Then, solutions of test compounds and standard were added to the wells of the 96-well White Plate, each was tested in triplicate. The CYP3A4 reaction mixture was added to each well and the plate was incubated for 10 min at room temperature. After that, the NADPH regeneration system was added, inducing the reaction followed by an incubation time of 10 min at ambient temperature. By adding the reconstituted luciferin detection reagent, the reaction was terminated, and a luminescent signal was formed. Luminescence was measured by a SpectraMax M3 UV plate reader (Molecular Devices). The relative light units (RLU) were received from a calibration curve with beetle luciferin. […] The CYP3A4 inhibition (%) was calculated from the RLU.

P. falciparum 3D7-A10 = system: P. falciparum 3D7-A10; parameters: method as in PMID 31813848, PMID 32682267; conditions: erythrocytic cycle of 40 h, different drug concentrations; cited from earlier work
P. falciparum = conditions: long-term in vitro, sub-lethal doses, cited from earlier work
L-6 cells = experiment: In vitro cytotoxicity with L-6 cells (Alamar Blue); format: cell-based, rat; conditions: rat, 72 h
Method: as §1, §2

[3] = Plasmodium falciparum, NF54, chloroquine-sensitive strain NF54, blood stages
[4] = chloroquine-sensitive strain NF54, blood stages

Structure (SMILES) | pIC50 (P. falciparum NF54; [3]) | Papp at 5 h, 200 µM [2] [×10⁻⁶ cm/s] | inhibition at 10 min, 20 µM (CYP3A4) [%] | pIC50 (P. falciparum NF54; [4]) | melting point [°C] | pIC50 (P. falciparum NF54; chloroquine-sensitive strain NF54, blood stages, H, N-pivaloylpiperazinyl) | IC50 at 72 h [1] [µM] | stage specific activity (P. falciparum 3D7-A10) | resistance development (P. falciparum) | resistance development (P. falciparum; listed as MMV030666) | pIC50 (L-6 cells)
CC(C)(C)OC(=O)N1CCN(c2ccccc2NC(=O)c2cccc(C(F)(F)F)c2Oc2ccc(F)cc2)CC1 [Compound 1, tert-Butyl-4-{2-[2-(4-fluorophenoxy)-3-(trifluoromethyl)benzamido]phenyl}piperazine-1-carboxylate] | 6.38 | 2.37 | 87 | – | – | – | 131 | peak activity in sub-micromolar concentrations on late stage trophozoites | did neither acquire resistances, nor cross-resistances | development of resistant parasites could not be observed | –
O=CN1CCN(c2ccccc2NC(=O)c2cccc(C(F)(F)F)c2Oc2ccc(F)cc2)CC1 [Compound 18, 2-(4-Fluorophenoxy)-N-[2-(4-formylpiperazin-1-yl)phenyl]-3-(trifluoromethyl)benzamide] | 4.81 to 5.18 | 1.05 | 82 | 5.18 | – | – | 31.8 to 35.4 | – | – | – | 4.50
CC(C)(C)N1CCN(c2ccccc2NC(=O)c2cccc(C(F)(F)F)c2Oc2ccc(F)cc2)CC1 [Compound 20, 2-(4-Fluorophenoxy)-N-[2-(4-tert-butylpiperazin-1-yl)phenyl]-3-(trifluoromethyl)benzamide] | 5.54 | 2.48 | – | – | 142 to 145 | – | 34.7 | – | – | – | –
CC(C)(C)C(=O)N1CCN(c2ccc(NC(=O)c3cccc(C(F)(F)F)c3Oc3ccc(F)cc3)cc2)CC1 [Compound 39, N-{4-[4-(2,2-Dimethylpropanoyl)piperazin-1-yl]phenyl}-2-(4-fluorophenoxy)-3-(trifluoromethyl)benzamide] | – | 0.24 | 89 | 6.24 | – | 6.57 | 78 to 99.6 | – | – | – | 4.00

Further lines, with some results ahead:

pIC50 (P. falciparum NF54; [3]) | Papp at 5 h, 200 µM [2] [×10⁻⁶ cm/s] | inhibition at 10 min, 20 µM (CYP3A4) [%] | pIC50 (P. falciparum NF54; [4]) | melting point [°C] | pIC50 (P. falciparum NF54; chloroquine-sensitive strain NF54, blood stages, H, N-pivaloylpiperazinyl) | Structure (SMILES) | IC50 at 72 h [1] [µM] | stage specific activity (P. falciparum 3D7-A10) | resistance development (P. falciparum) | resistance development (P. falciparum; listed as MMV030666) | pIC50 (L-6 cells)
6.18 to 6.21 | 0.23 | 94 | 6.21 | – | – | CC(C)(C)C(=O)N1CCN(c2ccccc2NC(=O)c2cccc(C(F)(F)F)c2Oc2ccc(F)cc2)CC1 [Compound 19, N-{2-[4-(2,2-Dimethylpropanoyl)piperazin-1-yl]phenyl}-2-(4-fluorophenoxy)-3-(trifluoromethyl)benzamide] | 185 to 190 | – | – | – | 3.73
5.91 | 1.22 | 80 | – | – | – | CC(C)(C)OC(=O)N1CCN(c2ccc(NC(=O)c3cccc(C(F)(F)F)c3Oc3ccccc3)cc2)CC1 [Compound 54, tert-Butyl-4-{4-[2-phenoxy-3-(trifluoromethyl)benzamido]phenyl}piperazine-1-carboxylate] | 124 | – | – | – | 3.73
6.18 to 6.21 | 0.11 | – | 6.18 | – | – | CC(C)(C)C(=O)N1CCN(c2ccccc2NC(=O)c2cccc(C(F)(F)F)c2Oc2ccccc2)CC1 [Compound 56, N-{2-[4-(2,2-Dimethylpropanoyl)piperazin-1-yl]phenyl}-2-phenoxy-3-(trifluoromethyl)benzamide] | 185 to 190 | – | – | – | 3.72

Reference: PMC8625693, “Synthesis and Structure-Activity Relationships of New 2-Phenoxybenzamides with Antiplasmodial Activity” (Pharmaceuticals, 2021)
